Laboratory results published in publication PMC4303209, “A novel phosphatidylinositol 3-kinase (PI3K) inhibitor directs a potent FOXO-dependent, p53-independent cell cycle arrest phenotype characterized by the differential induction of a subset of FOXO-regulated genes” (Breast Cancer Research : BCR, 2014).

Tested on: MCF-7 breast cancer cells
Assay: Microarray gene expression analysis (Agilent whole human genome 4 x 44K; compound vs DMSO, LIMMA log2 fold change)
Type: cell-based
Details: cell cycle genes

Oc1cccc(-c2nc(N3CCOCC3)c3oc4ncccc4c3n2)c1 [PI-103]
CDC25B log2FC (Gene 994): -0.0551
CDC25C log2FC (Gene 995): 1.56
CDC34 log2FC (Gene 997): 0.51
CDC42 log2FC (Gene 998): 0.08
CDK2 log2FC (Gene 1017): -0.44
CDK3 log2FC (Gene 1018): -0.00896
CDK4 log2FC (Gene 1019): 0.17
CDK5 log2FC (Gene 1020): 0.18
CDK7 log2FC (Gene 1022): 0.77
CDKN1A log2FC (Gene 1026): -1.23
CDKN1B log2FC (Gene 1027): 1.12
CDKN1C log2FC (Gene 1028): 0.88
CDKN2A log2FC (Gene 1029): 0.30
CDKN2D log2FC (Gene 1032): 0.90
CDKN3 log2FC (Gene 1033): 0.04
CENPA log2FC (Gene 1058): 0.29
CENPE log2FC (Gene 1062): 1.00
CENPF log2FC (Gene 1063): 1.50
CETN2 log2FC (Gene 1069): 0.12
CHD3 log2FC (Gene 1107): -0.15
CHEK1 log2FC (Gene 1111): 0.38
CKS1B log2FC (Gene 1163): 0.12
CKS2 log2FC (Gene 1164): -0.62
CLTC log2FC (Gene 1213): 0.15
PLK3 log2FC (Gene 1263): -1.59
ATF2 log2FC (Gene 1386): 0.88
CREBL2 log2FC (Gene 1389): 0.85
MAPK14 log2FC (Gene 1432): -0.30
CSNK1A1 log2FC (Gene 1452): -0.04
CSNK1D log2FC (Gene 1453): -0.30
CSNK1E log2FC (Gene 1454): -0.52
CSNK2A1 log2FC (Gene 1457): -0.65
CTBP1 log2FC (Gene 1487): -0.24
CTGF log2FC (Gene 1490): -0.35
CYLD log2FC (Gene 1540): 0.38
CYP27B1 log2FC (Gene 1594): -0.17
DAPK3 log2FC (Gene 1613): -0.075
DDB1 log2FC (Gene 1642): 0.26
DDIT3 log2FC (Gene 1649): 2.08
DDX3X log2FC (Gene 1654): -1.13
DHCR24 log2FC (Gene 1718): -0.73
DHFR log2FC (Gene 1719): 0.49
DLG1 log2FC (Gene 1739): 0.12
DMRT1 log2FC (Gene 1761): 0.0553
DYNC1I2 log2FC (Gene 1781): 0.63
DNM2 log2FC (Gene 1785): 0.27
DRD3 log2FC (Gene 1814): -0.0531
DUSP1 log2FC (Gene 1843): -0.80
DUSP3 log2FC (Gene 1845): 0.48
DYRK1A log2FC (Gene 1859): 0.34
E2F1 log2FC (Gene 1869): -0.12
E2F2 log2FC (Gene 1870): -0.38
E2F3 log2FC (Gene 1871): -0.42
E2F4 log2FC (Gene 1874): -0.66
E2F5 log2FC (Gene 1875): 0.15
E2F6 log2FC (Gene 1876): -0.52
E4F1 log2FC (Gene 1877): 0.31
ECT2 log2FC (Gene 1894): 0.84
EDN3 log2FC (Gene 1908): -0.022
EGF log2FC (Gene 1950): -0.01
EGFR log2FC (Gene 1956): 0.48
EIF4EBP1 log2FC (Gene 1978): 0.0433
EIF4G2 log2FC (Gene 1982): -0.10
EMD log2FC (Gene 2010): -0.12
ENSA log2FC (Gene 2029): -0.0565
EPS8 log2FC (Gene 2059): 0.46
ERCC2 log2FC (Gene 2068): -0.27
ERCC3 log2FC (Gene 2071): -0.11
ERCC4 log2FC (Gene 2072): 0.06
ERF log2FC (Gene 2077): 0.40
ERH log2FC (Gene 2079): -0.38
ERN1 log2FC (Gene 2081): -0.11
ETS1 log2FC (Gene 2113): -0.82
EZH2 log2FC (Gene 2146): 0.46
FANCG log2FC (Gene 2189): 0.0225
FEN1 log2FC (Gene 2237): -1.06
FER log2FC (Gene 2241): 0.26
FGF2 log2FC (Gene 2247): 0.18
FGF8 log2FC (Gene 2253): -0.13
FGF10 log2FC (Gene 2255): -0.00185
FGFR1 log2FC (Gene 2260): -0.37
FGFR3 log2FC (Gene 2261): -0.16
FGFR2 log2FC (Gene 2263): 1.81
FHL1 log2FC (Gene 2273): -0.0644
FOXC1 log2FC (Gene 2296): -0.77
FOXM1 log2FC (Gene 2305): -0.022
FLNA log2FC (Gene 2316): -0.0267
FNTB log2FC (Gene 2342): -0.45
GAS1 log2FC (Gene 2619): 0.76
GAS2 log2FC (Gene 2620): 0.15
GAS6 log2FC (Gene 2621): -0.10
GFI1 log2FC (Gene 2672): 0.03
GNAI1 log2FC (Gene 2770): 1.07
GNAI2 log2FC (Gene 2771): -0.26
GNAI3 log2FC (Gene 2773): 0.53
SFN log2FC (Gene 2810): -1.15
GPR3 log2FC (Gene 2827): -0.30
GPS1 log2FC (Gene 2873): 0.025
GPS2 log2FC (Gene 2874): 0.19
GSK3B log2FC (Gene 2932): -0.45
GSPT1 log2FC (Gene 2935): -0.35
MSH6 log2FC (Gene 2956): -0.0751
GTF2H1 log2FC (Gene 2965): 0.32
H2AFX log2FC (Gene 3014): -0.94
HCFC1 log2FC (Gene 3054): -0.62
HDAC1 log2FC (Gene 3065): -0.55
HDAC2 log2FC (Gene 3066): 0.06
HGF log2FC (Gene 3082): -0.20
HHEX log2FC (Gene 3087): -0.29
FOXA1 log2FC (Gene 3169): 0.13
HOXA13 log2FC (Gene 3209): 0.04
HRAS log2FC (Gene 3265): -0.76
PRMT2 log2FC (Gene 3275): 0.29
HES1 log2FC (Gene 3280): -1.26
HSF1 log2FC (Gene 3297): 0.25
HSPA2 log2FC (Gene 3306): -1.30
HSP90AA1 log2FC (Gene 3320): 0.72
ID2 log2FC (Gene 3398): 1.14
ID3 log2FC (Gene 3399): -0.08
IFNG log2FC (Gene 3458): -0.04
IGF1 log2FC (Gene 3479): 0.05
IGF1R log2FC (Gene 3480): 0.08
IGF2 log2FC (Gene 3481): 0.0241
IL1A log2FC (Gene 3552): -0.07
IL1B log2FC (Gene 3553): 0.035
IL8 log2FC (Gene 3576): -1.30
IL12B log2FC (Gene 3593): -0.0227
ILF3 log2FC (Gene 3609): -0.47
ILK log2FC (Gene 3611): -0.0473
INCENP log2FC (Gene 3619): 0.13
ING2 log2FC (Gene 3622): 0.26
INHA log2FC (Gene 3623): -0.06
INSM1 log2FC (Gene 3642): -0.06
INSR log2FC (Gene 3643): 0.74
IRF6 log2FC (Gene 3664): 0.56
ITGB1 log2FC (Gene 3688): 0.58
JUN log2FC (Gene 3725): -0.94
JUNB log2FC (Gene 3726): -0.65
KIF11 log2FC (Gene 3832): 0.83
KRT18 log2FC (Gene 3875): -0.44
STMN1 log2FC (Gene 3925): 0.33
LIF log2FC (Gene 3976): -1.84
LIG1 log2FC (Gene 3978): 0.0377
LIG3 log2FC (Gene 3980): -0.50
LLGL2 log2FC (Gene 3993): -0.0661
LRP5 log2FC (Gene 4041): -0.40
MAD2L1 log2FC (Gene 4085): -0.14
SMAD3 log2FC (Gene 4088): 0.24
MCM3 log2FC (Gene 4172): 0.0559
MCM5 log2FC (Gene 4174): 0.04
MCM7 log2FC (Gene 4176): 0.08
MDM2 log2FC (Gene 4193): -0.11
MDM4 log2FC (Gene 4194): -0.14
RAB8A log2FC (Gene 4218): -0.76
MIF log2FC (Gene 4282): 0.23
MKI67 log2FC (Gene 4288): 0.06
